Experimental data published in US20040127475A1, “Apparatus and method for delivering compounds to a living organism” (Estrogen Vascular Technology, LLC, priority 1999, published 2004).

Test system: porcine coronary arteries
Experiment: 17B-estradiol eluting stents in the pig model of instent restenosis, histomorphometric analysis at 30 days
Type: in vivo
Conditions: pre-clinical work, same stent, dose and loading process as Example 3
Description: In another example, low and high dose 17B-estradiol eluting stents were compared with control stents in a randomized fashion in 18 porcine coronary arteries. Each artery of six pigs were randomly stented with either a control, low-dose or high-dose 17-estradiol eluting stent. All animals were sacrificed at 30 days for histomorphometric analysis.
The experiment and animal care conformed to National Institutes of Health and American Heart Association guidelines for the care and use of animals and were approved by the Institutional Animal Care and Use Committee at the Washington Hospital Center. Six domestic juvenile swine weighing 35-45 kg were used. […] Heart rate, blood pressure and electrocardiography were monitored throughout the procedure. […]
Coronary angiography was performed after intracoronary nitroglycerin (200 μg) administration and recorded on cine film (Phillips Cardiodiagnost; Shelton, Conn.). […]
The histopathologist was blinded to the stent types in each artery. […] The vessel injury score was determined by the method described by Kornowski et al. The scoring of endothelialization is based on percent of intimal surface covered by endothelial cells. […]
Data (mean±standard deviation) were analyzed to determine differences between treatment groups using an ANOVA with a post-hoc Bonferroni analysis. […]

Compound: C[C@]12CC[C@@H]3c4ccc(O)cc4CC[C@H]3[C@@H]1CC[C@@H]2O [17β-estradiol, 17β-Estradiol]
- reduction in in-stent neo-intimal formation: 40%
